Series [1] can be described thus: Pharmacokinetics of parent HHQ16 after single intragastric administration of compound 2 prodrugs in rats. The series is classed as in vivo, rat. To be noted: HHQ16 (parent) measured in rats after single intragastric 10 mg/kg of prodrug (dose converted to HHQ16). The procedure: 1. The materials and methods for oral absorption test are the same as described in example 44.
The pharmacokinetic parameters of HHQ16 measured after a single intragastric administration of 10 mg/kg of compound 2 prodrug in rats are summarized in Table 2 below.
The half-life was prolonged to varying degrees.

A short description of series [2]: Solubility test in water and FaSSIF. The series is classed as physicochemical. The conditions noted are these: 37° C., up to 24 hours.
For series [3], the system named is chronic heart failure mice. Briefly: Pharmacodynamic comparison of LCZ696 and compound 2 in chronic heart failure mice (echocardiography). Type of series: in vivo. An excerpt:
With EF<50%, chronic heart failure mice were selected.
The mice were detected by cardiac ultrasound after 28 days of administration.

The mark [4] stands for this setting: 100 mg/kg, after 28 days of administration.
Setting [5] is: Positive control 1 (LCZ696, probably 60 mg/kg), Day 0.
Where [6] appears, read: Positive control 1 (LCZ696, probably 60 mg/kg), Day 28.
Setting [7] is: Positive control 2 (LCZ696, probably 100 mg/kg), Day 0.
The mark [8] stands for this setting: Positive control 2 (LCZ696, probably 100 mg/kg), Day 28.
[9] abbreviates: chronic heart failure mice (FIG. 9).

In the case of “2-(((2aR,3R,4S,5aS,5bS,7S,7aR,11aR,12aS)-9,9-difluoro-4-hydroxy-3-((2S,5S)-5-(2-hydroxypropan-2-yl)-2-methyltetrahydrofuran-2-yl)-2a,5a,8,8-tetramethyltetradecahydro-1H,12H-cyclopenta[a]cyclopropa[e]phenanthren-7-yl)oxy)-N-methyl-2-oxoethan-1-aminium Chloride [Compound 2-6]”, in series [1], the AUC0-t stood at 3.525 µg·h/mL; the Cmax (as a rule, the maximum level reached in the sampled fluid or tissue) came to 0.433 µg/mL; the t1/2 was determined as 4.2 h.

As to `CC(C)(O)[C@@H]1CC[C@@](C)([C@H]2[C@@H](O)C[C@@]3(C)[C@@H]4C[C@H](OC(=O)C[C@H]5CCCN5)[C@H]5C(C)(C)C(F)(F)CC[C@@]56C[C@@]46CC[C@]23C)O1.Cl` [Compound 2-3, (R)-2-(2-(((2aR,3R,4S,5aS,5bS,7S,7aR,11aR,12aS)-9,9-difluoro-4-hydroxy-3-((2S,5S)-5-(2-hydroxypropan-2-yl)-2-methyltetrahydrofuran-2-yl)-2a,5a,8,8-tetramethyltetradecahydro-1H,12H-cyclopenta[a]cyclopropa[e]phenanthren-7-yl)oxy)-2-oxoethyl)pyrrolidin-1-ium Chloride], the Solubility (commonly the dissolved amount per volume that the medium holds) in series [2] (FaSSIF (pH 6.5)) is reported as 1.8 mg/mL. For the same molecule, the Solubility in series [2] (Water) is on record as 0.95 mg/mL. For the same molecule, in series [1], the AUC0-t is 3.2 µg·h/mL, the peak concentration (Cmax) turned out to be 0.46 µg/mL and the t1/2 is 3.98 h.

With sacubitril valsartan sodium [LCZ696], in series [3] (60 mg/kg, after 28 days of administration), the “left ventricular ejection fraction EF % increased by” value stood at 33.14%. Also, in series [3] (setting [4]), the “FS %” value is on record as “significantly increased” and the “left ventricular ejection fraction EF % increased by” value is reported as 45.36%. In series [3] (setting [5]), this molecule had a CO of 30.83 ± 2.77 mL/min, an EF of 23.49 ± 3.96%, an FS of 9.31 ± 1.8% and an HR of 575.58 ± 11.44 times/min. In addition, in series [3] (setting [6]), the CO is 30.17 ± 1.85 mL/min, the EF is 31.27 ± 5.36%, the FS amounted to 12.93 ± 2.66% and the HR turned out to be 531.4 ± 19.6 times/min. Besides, in series [3] (setting [7]), the CO was 35.4 ± 3.19 mL/min, the EF was found to be 22.89 ± 2.06%, the FS is 9.24 ± 0.86 % and the HR amounted to 553.5 ± 10.76 times/min. In addition, in series [3] (setting [8]), the CO amounted to 39.02 ± 4.26 mL/min, the EF came out at 34.72 ± 5.06%, the FS is reported as 14.76 ± 2.86% and the HR is 550.17 ± 12.72 times/min. In addition, in series [3] (setting [9]), the “Cardiac output per minute (CO), day 28 vs day 0 (words)” value is reported as “not statistically significant” and the “Heart rate (HR), day 28 vs day 0” value is on record as “no significant change”. For the same molecule, the “EF, day 28 vs day 0 (words)” value in series [3] (chronic heart failure mice, p<0.0005 (FIG. 8)) is on record as “significantly increased”.

`CC(C)(O)[C@@H]1CC[C@@](C)([C@H]2[C@@H](O)C[C@@]3(C)[C@@H]4C[C@H](OC(=O)CNC(=O)CN)[C@H]5C(C)(C)C(F)(F)CC[C@@]56C[C@@]46CC[C@]23C)O1.Cl` [Compound 2-27, 2-((2-(((2aR,3R,4S,5aS,5bS,7S,7aR,11aR,12aS)-9,9-difluoro-4-hydroxy-3-((2S,5S)-5-(2-hydroxypropan-2-yl)-2-methyltetrahydrofuran-2-yl)-2a,5a,8,8-tetramethyltetradecahydro-1H,12H-cyclopenta[a]cyclopropa[e]phenanthren-7-yl)oxy)-2-oxoethyl)amino)-2-oxoethan-1-aminium Chloride] came in with a Solubility in series [2] (FaSSIF (pH 6.5)) of 4.3 mg/mL. In series [2] (Water), this molecule showed a Solubility of 1.3 mg/mL. Moreover, in series [1], the AUC0-t was determined as 3.005 µg·h/mL, the highest concentration (Cmax) came to 0.358 µg/mL and the t1/2 is 7.5 h.

In series [2] (FaSSIF (pH 6.5)), `CC(C)(O)[C@@H]1CC[C@@](C)([C@H]2[C@@H](O)C[C@@]3(C)[C@@H]4C[C@H](OC(=O)CNC(=O)[C@@H](N)CO)[C@H]5C(C)(C)C(F)(F)CC[C@@]56C[C@@]46CC[C@]23C)O1.Cl` [Compound 2-31, (S)-1-((2-(((2aR,3R,4S,5aS,5bS,7S,7aR,11aR,12aS)-9,9-difluoro-4-hydroxy-3-((2S,5S)-5-(2-hydroxypropan-2-yl)-2-methyltetrahydrofuran-2-yl)-2a,5a,8,8-tetramethyltetradecahydro-1H,12H-cyclopenta[a]cyclopropa[e]phenanthren-7-yl)oxy)-2-oxoethyl)amino)-3-hydroxy-1-oxopropan-2-aminium Chloride] returned a Solubility of 6.25 mg/mL. In series [2] (Water), this molecule returned a Solubility of 1.65 mg/mL. Besides, in series [1], the AUC0-t amounted to 3.888 µg·h/mL, the Cmax turned out to be 0.403 µg/mL and the t1/2 is reported as 4.5 h.

Molecule `CC(O)C(N)C(=O)OC1CC2C3(C)CC(O)C(C4(C)CCC(C(C)(C)O)O4)C3(C)CCC23CC32CCC(F)(F)C(C)(C)C12.Cl` [Compound 2-20, (2S,3S)-1-(((2aR,3R,4S,5aS,5bS,7S,7aR,11aR,12aS)-9,9-difluoro-4-hydroxy-3-((2S,5S)-5-(2-hydroxypropan-2-yl)-2-methyltetrahydrofuran-2-yl)-2a,5a,8,8-tetramethyltetradecahydro-1H,12H-cyclopenta[a]cyclopropa[e]phenanthren-7-yl)oxy)-3-hydroxy-1-oxobutan-2-aminium Chloride] gave a Solubility in series [2] (FaSSIF (pH 6.5)) of 2.8 mg/mL. In series [2] (Water), this molecule showed a Solubility of 1.2 mg/mL. For the same molecule, in series [1], the AUC0-t turned out to be 4.005 µg·h/mL, the Cmax came to 0.582 µg/mL and the t1/2 turned out to be 3.6 h.

For `CC(C)(O)[C@@H]1CC[C@@](C)([C@H]2[C@@H](O)C[C@@]3(C)[C@@H]4C[C@H](OC(=O)[C@@H](N)CO)[C@H]5C(C)(C)C(F)(F)CC[C@@]56C[C@@]46CC[C@]23C)O1.Cl` [Compound 2-19, (S)-1-(((2aR,3R,4S,5aS,5bS,7S,7aR,11aR,12aS)-9,9-difluoro-4-hydroxy-3-((2S,5S)-5-(2-hydroxypropan-2-yl)-2-methyltetrahydrofuran-2-yl)-2a,5a,8,8-tetramethyltetradecahydro-1H,12H-cyclopenta[a]cyclopropa[e]phenanthren-7-yl)oxy)-3-hydroxy-1-oxopropan-2-aminium chloride], the Solubility in series [2] (FaSSIF (pH 6.5)) is 3.98 mg/mL. Besides, in series [2] (Water), the Solubility was 1.24 mg/mL. Moreover, in series [1], the AUC0-t came to 4.4 µg·h/mL, the maximum concentration (Cmax) turned out to be 0.602 µg/mL and the t1/2 is reported as 3.5 h.

For `CC(C)C(N)C(=O)OC1CC2C3(C)CC(O)C(C4(C)CCC(C(C)(C)O)O4)C3(C)CCC23CC32CCC(F)(F)C(C)(C)C12.Cl` (mixture of isomers) [Compound 2-15, 1-(((2aR,3R,4S,5aS,5bS,7S,7aR,11aR,12aS)-9,9-difluoro-4-hydroxy-3-((2S,5S)-5-(2-hydroxypropan-2-yl)-2-methyltetrahydrofuran-2-yl)-2a,5a,8,8-tetramethyltetradecahydro-1H,12H-cyclopenta[a]cyclopropa[e]phenanthren-7-yl)oxy)-3-methyl-1-oxobutan-2-aminium Chloride], the Solubility in series [2] (FaSSIF (pH 6.5)) is recorded as 3.02 mg/mL. Further, in series [2] (Water), the Solubility was 0.77 mg/mL. Further, in series [1], the AUC0-t turned out to be 4.5 µg·h/mL, the Cmax worked out at 0.451 µg/mL and the t1/2 was 8.2 h.

With `CN(CC(=O)OC1CC2C3(C)CC(O)C(C4(C)CCC(C(C)(C)O)O4)C3(C)CCC23CC32CCC(F)(F)C(C)(C)C12)C(=O)C(N)Cc1ccccc1.Cl` [Compound 2-28, (R)-1-((2-(((2aR,3R,4S,5aS,5bS,7S,7aR,11aR,12aS)-9,9-difluoro-4-hydroxy-3-((2S,5S)-5-(2-hydroxypropan-2-yl)-2-methyltetrahydrofuran-2-yl)-2a,5a,8,8-tetramethyltetradecahydro-1H,12H-cyclopenta[a]cyclopropa[e]phenanthren-7-yl)oxy)-2-oxoethyl)(methyl)amino)-1-oxo-3-phenylpropan-2-aminium Chloride], in series [2] (FaSSIF (pH 6.5)), the Solubility came out at 2.85 mg/mL. Moreover, the Solubility in series [2] (Water) stood at 0.65 mg/mL. Moreover, in series [1], the AUC0-t worked out at 4.332 µg·h/mL, the maximum concentration (Cmax) amounted to 0.475 µg/mL and the t1/2 is reported as 6.2 h.

Regarding “(S)-1-(((2aR,3R,4S,5aS,5bS,7S,7aR,11aR,12aS)-9,9-difluoro-4-hydroxy-3-((2S,5S)-5-(2-hydroxypropan-2-yl)-2-methyltetrahydrofuran-2-yl)-2a,5a,8,8-tetramethyltetradecahydro-1H,12H-cyclopenta[a]cyclopropa[e]phenanthren-7-yl)oxy)-1-oxopropan-2-aminium Chloride [Compound 2-17]”, in series [1], the AUC0-t is 5.222 µg·h/mL, the Cmax stood at 0.501 µg/mL and the t1/2 turned out to be 7.8 h.

Take “3-(((2aR,3R,4S,5aS,5bS,7S,7aR,11aR,12aS)-9,9-difluoro-4-hydroxy-3-((2S,5S)-5-(2-hydroxypropan-2-yl)-2-methyltetrahydrofuran-2-yl)-2a,5a,8,8-tetramethyltetradecahydro-1H,12H-cyclopenta[a]cyclopropa[e]phenanthren-7-yl)oxy)-3-oxopropan-1-aminium Chloride [Compound 2-1]”: in series [1], the AUC0-t stood at 2.955 µg·h/mL, the Cmax is 0.455 µg/mL and the t1/2 is reported as 3.52 h.

Values taken from US20220177511A1, “SERIES OF HALOGENATED TETRACYCLIC TRITERPENE DERIVATIVES AND THEIR PREPARATION AND APPLICATION” (SHANGHAI KING-X BIOTECH CO., LTD, priority 2019, published 2022).
